Measurements taken from patent EP1140026B1, “BIODEGRADBLE POLYMER ENCAPSULATED SEROTONIN RECEPTOR ANTAGONIST AND METHOD FOR PREPARING THE SAME” (AVENTIS PHARMACEUTICALS INC., priority 1998, dated 2000).

Assays:
Male Wistar rats = assay: Chronic Mild Stress Model of Depression (CMS), consumption of 1% sucrose solution; format: in vivo
Description: CMS uses mild stressors, such as food and water deprivation, cage tilts, changes of cage mates, etc. Over a period of weeks of exposure to the mild stressors, the animals gradually reduce their consumption of a highly preferred sucrose solution which persists (in untreated animals) for several weeks following the cessation of stress. This decreased sensitivity to reward (the sucrose solution) reflects anhedonia, a symptom of a Major Depressive Episode (see for example, Behavioral Pharmacol. 5: Suppl.1, p. 86 (1994) where lithium, carbamazepine and ketoconazole were evaluated in CMS; Psychopharmacology 93:358-364 (1987) where a tricyclic antidepressant was evaluated in CMS; Behavioral Pharmacology: 5:344-350 (1994) where a catechol-O-methyl transferase inhibitor was evaluated in CMS).
Male Wistar rats were brought into the laboratory two months before the start of the experiment at which time they weighed approximately 300 grams. Except as described below, the animals were singly housed, with food and water freely available, and maintained on a 12 hour light/dark cycle (lights on at 8AM) at a temperature of about 22 °C.
The animals were first trained to consume a 1% sucrose solution; training consisted of eight 1 hour baseline tests in which sucrose was presented, in the home cage, following 14 hours food and water deprivation;- intake was measured by weighing pre-weighed bottles containing the sucrose solution at the end of the test. Subsequently, sucrose consumption was monitored, under similar conditions, at weekly intervals throughout the whole experiment.
On the basis of their sucrose intakes in the final baseline test, the animals were divided into two matched groups. One group of animals was subjected to a chronic mild stress procedure for a period of 9 consecutive weeks. Each week of stress regime consisted of: two periods of food or water deprivation (12 and 14 hour), two periods of 45 degree cage tilt (12 and 14 hour+), two periods of intermittent overnight illumination (lights on and off every 2 hours), two 14 hour periods of soiled cage (200 ml water in sawdust bedding), two 14 hour periods of paired housing, two 14 hour periods of low intensity stroboscopic illumination (150 flashes/min). Stressors were applied continuously throughout the day and night, and scheduled randomly. Control animals were housed in a separate room and had no contract with the stressed animals. They were deprived of food and water for the 14 hours preceding each sucrose test, but otherwise food and water were freely available in the home cage. On the basis of their sucrose intake scores following 3 weeks of stress, both stressed and control animals were each divided further into matched subgroups (n=8), and for subsequent five weeks they received daily administrations of vehicle (1ml/kg, intraperitoneally (ip)) imipramine (10mg/kg, ip) or MDL 100,907 (0.002, 0.02 and 0.2 mg/kg orally). All drug injections were in a volume of 1ml/kg body weight. Drugs were administered at 10AM and sucrose tests were carried out 24 hours following the last drug treatment. After five weeks, the treatments were terminated and after one week of withdrawal a final sucrose test was carried out. Stress was continued throughout the period of treatment and withdrawal.
Results were analyzed by multiple analysis of variance, followed by Fisher's LSD test for post hoc comparisons of means.

[1] = tested on: MDMA-induced dopamine release in the striatum; settings: in vivo; cited from earlier work
[2] = tested on: A10 vs. A9 neuronal activity; settings: after chronic administration; cited from earlier work
[3] = tested on: amphetamine-stimulated locomotion; settings: in vivo; cited from earlier work
[4] = tested on: prepulse inhibition and latent inhibition; settings: cited from earlier work
platelets = settings: aggregation as the result of minor alterations in the endothelial lining of the vasculature; cited from earlier work
myocardial tissue = settings: cited from earlier work

## CN(C)CCCN1c2ccccc2CCc2ccccc21 [Imipramine, reference compound]
Male Wistar rats; imipramine 10mg/kg ip daily, five weeks
  sucrose intake in control animals: no significant effect
Male Wistar rats; imipramine 10mg/kg ip daily, five weeks, stressed animals
  sucrose intake in stressed animals: gradual increase of sucrose intake
Male Wistar rats; imipramine 10mg/kg ip daily, Week 5
  sucrose intake after five weeks of treatment, stressed animals versus controls: no significant differences between drug-treated stressed animals and drug- and saline-treated controls
Male Wistar rats; imipramine 10mg/kg ip daily, stressed animals
  treatment time after which sucrose intake was significantly increased from Week 0 scores: four
Male Wistar rats; imipramine 10mg/kg ip, stressed animals, one week after withdrawal
  increase of sucrose intake one week after withdrawal from the drug: maintained at similar level

## COc1cccc(C(O)C2CCN(CCc3ccc(F)cc3)CC2)c1OC (stereo not drawn) [MDL 100,907, (+)-α-(2,3-dimethoxyphenyl)-1-[2-(4-fluorophenyl)ethyl]-4-piperidinemethanol]
Male Wistar rats; 0.002mg/kg orally daily, stressed animals
  sucrose intake throughout the whole treatment period: no significant effect
Male Wistar rats; 0.002mg/kg orally daily, stressed animals, Week 5
  sucrose consumption after five weeks of treatment: did not differ from the intakes of the vehicle-treated stressed animals
Male Wistar rats; 0.02 mg/kg orally daily, stressed animals
  treatment time after which sucrose intakes were significantly increased from initial scores (Week 0): two
Male Wistar rats; 0.02 mg/kg orally daily, stressed animals, Week 5
  amount of sucrose solution drunk at the end of treatment period (Week 5): comparable to that of vehicle-treated controls and significantly higher than that of vehicle-treated stressed animals
Male Wistar rats; 0.2 mg/kg orally daily, stressed animals
  treatment time after which sucrose intakes were significantly increased from initial scores (Week 0): three
Male Wistar rats; 0.2 mg/kg orally daily, stressed animals, Week 5
  amount of sucrose solution drunk at the end of treatment period (Week 5): comparable to that of vehicle-treated controls and significantly higher than that of vehicle-treated stressed animals
Male Wistar rats; 0.002, 0.02 and 0.2 mg/kg, control and stressed animals, one week after withdrawal
  sucrose intakes one week after withdrawal from the treatment: not significantly changed
Male Wistar rats; MDL 100,907 0.002, 0.02 and 0.2 mg/kg orally daily, five weeks
  sucrose intake in control animals: no significant effect
Male Wistar rats; MDL 100,907 0.002, 0.02 and 0.2 mg/kg orally daily, five weeks, stressed animals
  CMS-induced deficit in sucrose intake in stressed animals: gradually reversed the CMS-induced deficit in sucrose intake
[1]
  MDMA-induced dopamine release in the striatum: reduction
[2]
  A10 vs. A9 neuronal activity: selective effects
[3]
  amphetamine-stimulated locomotion: blockade
[4]; disruption produced by 5HT agonists in Wistar rats
  disrupted PPI (prepulse inhibition): restore disrupted PPI
[4]; rat, in vivo
  5-HT2 agonist-induced deficits in prepulse inhibition and latent inhibition: reversal
platelets
  rate at which platelets aggregate: decreases the rate at which platelets aggregate
Myocardial tissue
  anti-arrhythmic activity, classification system of Vaughan Williams: Class III anti-arrhythmic activity
  duration of the action potential of myocardial tissue: increases the duration of the action potential
